From patent publication US8138191B2, “Inhibitor compounds and cancer treatment methods” (Critical Outcome Technologies Inc., priority 2007, dated 2012)

Key:
H226 = test: in vitro IC50 against cancer cell lines, H226; type: cell-based; details: Homo sapiens, NCI-H226, 72 h; H226, NSCLC, 3 days
Description: Briefly, cells were plated in plastic tissue culture plates and grown under standard conditions for each cell line, in carbon dioxide/oxygen atmosphere in plastic tissue culture plates, in the presence of COTI-2 or COTI-219 compounds at 35° C. for 3 days. Control cultures were treated with vehicle minus compound. Cells were counted after 3 days in culture and at a cell density of no more than 80%. The following cell lines, obtained from the National Cancer Institute, were tested: human SCLC cell lines DMS153, DMS114, SHP77; human NSCLC cell lines H226, A460, A560; human breast cancer cell lines T47D, MCF7; human colon cancer cell line HT29; and, human Leukemia cell lines K562, HL60.

[1] = tested on: DMS-114 and SHP-77 SCLC cell lines; test: Cell viability by trypan blue exclusion; type: cell-based, human; details: 250 nM, within four days
Description: Cell viability was determined at 24, 48, and 96 hrs by the trypan exclusion method. Whole cell lysates were prepared using standard procedures and fifty micrograms of lysate protein was separated on SDS-PAGE gels and analyzed by western blotting.
Cell viability was determined at 24, 48, and 96 h by the trypan exclusion method. Whole cell lysates were prepared using standard procedures and 50 μg of lysate protein was separated on SDS-PAGE gels and analyzed by western blotting.

DMS114 cells [2] = test: AKT/AKT2 siRNA then COTI-2, cell viability by MTT assay, DMS114; type: cell-based, human; details: DMS114, 500 nM COTI-2
Description: (§1) Cell cultures were maintained under regular tissue culture conditions and passaged 1-2 times a week as recommended by ATCC. For siRNA experiments the manufacturer's conditions for growth and transfection were followed. All siRNA reagents for AKT and AKT2 transfections were obtained from Cell Signaling.
(§2) Cells were treated for 48 h with 0-100 ng of AKT or AKT2 siRNA before incubation with COTI-2 at various concentrations (0-500 nM). Following incubation for 48 h, cell viability was determined by MTT assay.

SHP77 cells = test: AKT/AKT2 siRNA then COTI-2, cell viability by MTT assay, SHP77; type: cell-based, human; details: SHP 77
Description: as §1, §2

[3] = tested on: normal human peripheral blood mononuclear cells (PBMCs); test: Flow cytometric analysis of cell death (Annexin V/PI), PBMCs; type: cell-based; details: PBMC, PBMCs from healthy male and female subjects
Description: All cell lines were grown and exposed to various concentrations of COTI-2 or vehicle only control and the percentage of dead or dying cells were determined 24 and 48 h post-exposure by Annexin V and propidium iodide.
Blood samples from 2 healthy human volunteers (person) were obtained in 5 ml Vacutainers® containing 100 USP sodium heparin (Becton Dickinson, Franklin Lake, N.J.) and rocked gently to mix, then kept at room temperature. Blood was diluted 1:1 with phosphate buffered saline (PBS) and layered over an equal volume of room temperature Histopaque-1083® (Sigma Diagnostics, St. Louis, Mo.) in a 15 ml conical bottom polyethylene (PET) centrifuge tube (Corning Corporation, Corning, N.Y.). This was centrifuged at 400×g for 30 minutes at 20° C. […]
Cells were plated in 25-cm^2 flasks and treated with COTI-2 (0-100 μM) added from a stock DMSO/DMEM solution such that DMSO concentrations never exceeded 0.5%. […] Resuspended cells (100 μl) were incubated in the dark with 10 μl propidium iodide (PI, 50 ng per ml; Sigma, St. Louis, Mo.) plus Annexin V-FITC (25 ng per ml, green fluorescence; BD Biosciences, Mississauga, Ontario). […] Samples were analyzed for combined Annexin V/PI staining (to assess dead plus apoptotic cells) using a Beckman Coulter EPCS XL-MCL flow cytometer (Beckman Coulter, Hileah, Fla.) and the data were analyzed with CellQuest software.

in vitro = in vitro ADME; details: mixed breeds, rat
rat plasma = test: in vitro; type: in vitro ADME; details: mixed breeds, 10 µM
[4] = A-B Permeability (TC7, pH 7.4/7.4) + verapamil; type: in vitro ADME; details: human, Caco-2, pH 7.4, with verapamil (concentration not stated), 1.0E−05 M
CYP1A = CYP1A (Homo sapiens, UniProt P05177); test: in vitro; details: both
[5] = tested on: Akt kinase activity in DMS-114 cells; test: Akt kinase activity (immunoprecipitated Akt, GSK-3 phosphorylation), DMS-114; details: DMS-114, 250 nM, 8 hrs
DMS114 cells [6] = test: Cell cycle analysis of DMS114 cells by FACS; type: cell-based, human; details: DMS114, 1.5 μM, 24 h
Description: Approximately 2×10^5 DMS114 cells were incubated for 24 h with the indicated concentrations of COTI-219. Following incubation with COTI-219 the cells were washed and re-suspended in 0.5 ml of BP Pharmingen Propidium Iodide staining solution (Cat. No. 556463) for FACS analysis in order to determine the changes in the cell cycle.

Sequence of CYP1A (P05177 whole entry): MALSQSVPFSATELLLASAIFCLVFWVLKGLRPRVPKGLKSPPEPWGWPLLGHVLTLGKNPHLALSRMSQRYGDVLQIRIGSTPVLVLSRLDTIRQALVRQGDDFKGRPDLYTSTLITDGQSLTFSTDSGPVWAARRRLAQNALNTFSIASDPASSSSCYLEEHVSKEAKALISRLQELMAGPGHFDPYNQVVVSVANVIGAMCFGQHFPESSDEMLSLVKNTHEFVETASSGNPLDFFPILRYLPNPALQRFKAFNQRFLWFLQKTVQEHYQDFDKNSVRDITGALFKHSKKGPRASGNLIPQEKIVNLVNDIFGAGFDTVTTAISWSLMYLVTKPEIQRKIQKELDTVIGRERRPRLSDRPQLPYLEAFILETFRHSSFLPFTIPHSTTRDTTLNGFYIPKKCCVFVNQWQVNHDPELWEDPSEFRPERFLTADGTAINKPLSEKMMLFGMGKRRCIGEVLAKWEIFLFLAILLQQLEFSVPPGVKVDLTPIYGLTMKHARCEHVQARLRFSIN

| Compound | IC50 (H226) [µM] | original tumor cells killed [1] | cytotoxicity after AKT2 knock-down by siRNA (DMS114 cells [2]) | cell death with total AKT or AKT2 siRNA, presence vs absence of COTI-2 (SHP77 cells) | IC50 [3] [µM] | recovery at 10 µM (in vitro; % Recovery 1st) [%] | recovery at 10 µM (in vitro; % Recovery 2nd) [%] | recovery at 10 µM (in vitro; % Recovery Mean) [%] | recovery at 10 µM (in vitro; percent recovery) [%] | % Protein Bound 1st (rat plasma) [%] | % Protein Bound 2nd (rat plasma) [%] | % Protein Bound Mean (rat plasma) [%] | percent protein bound (rat plasma) [%] | recovery at 10 µM ([4]; 1st determination, read-out: Percent Recovery 1st) [%] | recovery at 10 µM ([4]; 2nd determination, read-out: Percent Recovery 2nd) [%] | recovery at 10 µM ([4]; mean, read-out: Percent Recovery Mean) [%] | inhibition at 15 min, 10 µM (CYP1A; human liver microsomes, pH 7.4, probe phenacetin (10 µM)) [%] | inhibition at 15 min, 10 µM (CYP1A; liver microsomes, pH 7.4, probe phenacetin) [%] | Akt kinase activity [5] | cell cycle effect (DMS114 cells [6]) |
| --- | --- | --- | --- | --- | --- | --- | --- | --- | --- | --- | --- | --- | --- | --- | --- | --- | --- | --- | --- | --- |
| S=C(N/N=C1/CCCc2cccnc21)N1CCN(c2ccccn2)CC1 [COTI-2] | 15 | up to 80% | unable to exert additional significant cytotoxicity | no significant difference in cell death | > 100 | 16.4 | 25.1 | 20.7 | < 50 | >99.9 | >99.9 | >99.9 | > 99 | 17 | 13 | 15 | -2 | < 50 | below the threshold for measurement |  |
| CN1CCN(C(=S)NN=C2c3ncccc3-c3cccnc32)CC1 [COTI-219] |  |  |  |  |  |  |  |  |  |  |  |  |  |  |  |  |  |  |  | cell cycle arrest in G1 |
